Measured values reported in ChEMBL document CHEMBL1201862, “PubChem BioAssay data set” (2004).
The source made the active and inactive calls.

Key:
Caspase-3 = target: T1, Caspase-3 (Homo sapiens, UniProt P42574); assay: caspase-3 enzyme inhibitors, selectivity check, dose response, selectivity assay for caspase-6 allosteric inhibitor project, biochemical, fluorescence, cherry-picked samples (AID 743291)
T1 sequence (P42574 whole entry): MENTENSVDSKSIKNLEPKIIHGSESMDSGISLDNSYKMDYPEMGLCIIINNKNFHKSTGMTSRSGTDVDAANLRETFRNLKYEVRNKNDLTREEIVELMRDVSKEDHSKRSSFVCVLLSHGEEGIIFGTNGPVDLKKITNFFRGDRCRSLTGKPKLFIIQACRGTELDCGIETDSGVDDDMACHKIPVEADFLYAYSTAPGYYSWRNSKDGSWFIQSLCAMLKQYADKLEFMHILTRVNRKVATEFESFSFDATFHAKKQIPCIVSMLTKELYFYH

[1] = target: T2, Histone-lysine N-methyltransferase NSD2 (Homo sapiens, UniProt O96028); type: biochemical
T2 sequence (O96028 whole entry): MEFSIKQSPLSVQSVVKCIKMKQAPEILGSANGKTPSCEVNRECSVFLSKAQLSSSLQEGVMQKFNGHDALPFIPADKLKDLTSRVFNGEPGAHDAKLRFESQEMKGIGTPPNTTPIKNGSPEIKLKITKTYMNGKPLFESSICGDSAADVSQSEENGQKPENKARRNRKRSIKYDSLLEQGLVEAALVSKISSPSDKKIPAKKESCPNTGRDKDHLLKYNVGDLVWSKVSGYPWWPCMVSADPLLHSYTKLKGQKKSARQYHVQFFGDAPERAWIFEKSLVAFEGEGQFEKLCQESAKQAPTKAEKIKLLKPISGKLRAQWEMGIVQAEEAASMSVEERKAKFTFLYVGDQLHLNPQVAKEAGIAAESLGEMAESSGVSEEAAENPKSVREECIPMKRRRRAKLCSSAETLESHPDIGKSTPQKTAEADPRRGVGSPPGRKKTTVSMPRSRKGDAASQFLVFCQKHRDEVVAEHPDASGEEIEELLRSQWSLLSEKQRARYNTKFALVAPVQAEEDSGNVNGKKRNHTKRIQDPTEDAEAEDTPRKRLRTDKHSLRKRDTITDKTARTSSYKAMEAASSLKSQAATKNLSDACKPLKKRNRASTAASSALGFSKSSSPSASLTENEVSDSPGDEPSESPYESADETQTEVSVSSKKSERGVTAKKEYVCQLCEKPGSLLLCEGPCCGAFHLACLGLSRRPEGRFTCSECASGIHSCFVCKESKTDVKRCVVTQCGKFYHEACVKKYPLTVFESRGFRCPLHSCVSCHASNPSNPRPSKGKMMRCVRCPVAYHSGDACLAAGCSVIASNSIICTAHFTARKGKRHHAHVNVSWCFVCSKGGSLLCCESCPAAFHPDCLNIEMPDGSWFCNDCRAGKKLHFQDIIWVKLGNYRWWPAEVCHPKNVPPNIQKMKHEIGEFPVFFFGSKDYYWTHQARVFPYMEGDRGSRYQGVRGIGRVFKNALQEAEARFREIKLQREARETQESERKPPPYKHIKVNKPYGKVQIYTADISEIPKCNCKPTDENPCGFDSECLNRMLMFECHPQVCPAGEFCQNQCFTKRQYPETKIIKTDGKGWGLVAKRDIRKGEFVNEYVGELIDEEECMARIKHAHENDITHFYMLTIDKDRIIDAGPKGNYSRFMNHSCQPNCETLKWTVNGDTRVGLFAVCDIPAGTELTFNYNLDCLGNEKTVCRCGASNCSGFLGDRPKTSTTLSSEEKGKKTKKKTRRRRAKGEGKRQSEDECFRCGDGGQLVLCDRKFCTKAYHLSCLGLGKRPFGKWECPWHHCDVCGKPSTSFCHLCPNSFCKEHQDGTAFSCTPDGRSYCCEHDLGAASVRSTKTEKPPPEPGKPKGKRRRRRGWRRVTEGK

SRSF protein kinase 1 = SRSF protein kinase 1 (Homo sapiens, UniProt Q96SB4); type: functional;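 also: measured as one member of a kinome-wide kinase profiling panel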
Sequence of SRSF protein kinase 1 (Q96SB4 whole entry): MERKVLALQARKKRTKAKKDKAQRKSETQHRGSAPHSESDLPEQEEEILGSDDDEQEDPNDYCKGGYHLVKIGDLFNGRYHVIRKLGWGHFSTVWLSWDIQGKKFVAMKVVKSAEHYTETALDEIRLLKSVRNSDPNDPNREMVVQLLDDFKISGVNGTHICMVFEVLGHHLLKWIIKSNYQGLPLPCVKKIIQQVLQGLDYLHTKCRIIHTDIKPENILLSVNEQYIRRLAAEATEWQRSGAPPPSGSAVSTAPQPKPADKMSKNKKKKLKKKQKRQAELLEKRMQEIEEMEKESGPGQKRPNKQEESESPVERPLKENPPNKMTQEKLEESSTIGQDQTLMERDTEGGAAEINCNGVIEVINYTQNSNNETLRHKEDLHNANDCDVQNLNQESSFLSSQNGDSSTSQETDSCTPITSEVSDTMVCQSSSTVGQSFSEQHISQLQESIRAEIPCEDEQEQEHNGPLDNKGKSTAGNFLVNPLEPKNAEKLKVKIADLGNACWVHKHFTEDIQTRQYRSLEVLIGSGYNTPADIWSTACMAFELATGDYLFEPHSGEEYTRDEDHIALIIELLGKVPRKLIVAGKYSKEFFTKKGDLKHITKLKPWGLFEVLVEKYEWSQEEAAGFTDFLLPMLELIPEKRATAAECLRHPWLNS

[2] = target: Rho-associated protein kinase 2 (Homo sapiens, UniProt O75116); type: functional
[3] = target: Tyrosine-protein kinase FRK (Homo sapiens, UniProt P42685); type: functional;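 also: FRK tested as one member of a kinome panel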
[4] = target: Cyclin-dependent kinase 1 (Homo sapiens, UniProt P06493); type: functional;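 also: Kinome-wide panel profiling, with the target listed as panel member CDC2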
[5] = target: Serine/threonine-protein kinase D2 (Homo sapiens, UniProt Q9BZL6); type: functional;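 also: measured against PRKD2 as one member of a kinome-wide kinase profiling panel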
Sequence of Serine/threonine-protein kinase D2 (Q9BZL6 whole entry): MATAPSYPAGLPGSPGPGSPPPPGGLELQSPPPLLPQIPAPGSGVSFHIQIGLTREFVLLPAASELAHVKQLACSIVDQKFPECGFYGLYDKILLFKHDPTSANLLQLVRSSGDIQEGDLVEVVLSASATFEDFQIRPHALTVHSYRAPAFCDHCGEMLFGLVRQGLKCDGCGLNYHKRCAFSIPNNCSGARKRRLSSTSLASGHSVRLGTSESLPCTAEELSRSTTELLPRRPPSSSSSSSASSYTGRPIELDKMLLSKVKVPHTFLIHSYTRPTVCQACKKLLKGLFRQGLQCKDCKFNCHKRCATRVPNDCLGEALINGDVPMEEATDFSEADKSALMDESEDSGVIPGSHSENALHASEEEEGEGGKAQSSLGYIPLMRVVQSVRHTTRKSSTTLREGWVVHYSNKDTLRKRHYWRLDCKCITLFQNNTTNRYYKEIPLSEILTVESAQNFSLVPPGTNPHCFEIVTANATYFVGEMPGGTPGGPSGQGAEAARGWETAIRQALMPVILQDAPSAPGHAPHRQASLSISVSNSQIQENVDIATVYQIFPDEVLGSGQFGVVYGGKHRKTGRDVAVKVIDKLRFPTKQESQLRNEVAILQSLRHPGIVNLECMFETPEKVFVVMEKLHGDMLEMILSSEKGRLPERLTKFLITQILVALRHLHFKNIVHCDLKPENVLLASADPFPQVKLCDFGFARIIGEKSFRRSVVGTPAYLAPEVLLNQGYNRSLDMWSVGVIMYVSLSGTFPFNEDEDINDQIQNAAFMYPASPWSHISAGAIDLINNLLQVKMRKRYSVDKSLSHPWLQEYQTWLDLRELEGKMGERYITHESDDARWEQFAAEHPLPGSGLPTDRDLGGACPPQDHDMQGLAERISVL

[6] = target: Tyrosine-protein kinase SYK (Homo sapiens, UniProt P43405); type: functional
[7] = target: Interleukin-1 receptor-associated kinase 1 (Homo sapiens, UniProt P51617); type: functional;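 also: IRAK1 tested as one member of a kinome panel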
Sequence of Interleukin-1 receptor-associated kinase 1 (P51617 whole entry): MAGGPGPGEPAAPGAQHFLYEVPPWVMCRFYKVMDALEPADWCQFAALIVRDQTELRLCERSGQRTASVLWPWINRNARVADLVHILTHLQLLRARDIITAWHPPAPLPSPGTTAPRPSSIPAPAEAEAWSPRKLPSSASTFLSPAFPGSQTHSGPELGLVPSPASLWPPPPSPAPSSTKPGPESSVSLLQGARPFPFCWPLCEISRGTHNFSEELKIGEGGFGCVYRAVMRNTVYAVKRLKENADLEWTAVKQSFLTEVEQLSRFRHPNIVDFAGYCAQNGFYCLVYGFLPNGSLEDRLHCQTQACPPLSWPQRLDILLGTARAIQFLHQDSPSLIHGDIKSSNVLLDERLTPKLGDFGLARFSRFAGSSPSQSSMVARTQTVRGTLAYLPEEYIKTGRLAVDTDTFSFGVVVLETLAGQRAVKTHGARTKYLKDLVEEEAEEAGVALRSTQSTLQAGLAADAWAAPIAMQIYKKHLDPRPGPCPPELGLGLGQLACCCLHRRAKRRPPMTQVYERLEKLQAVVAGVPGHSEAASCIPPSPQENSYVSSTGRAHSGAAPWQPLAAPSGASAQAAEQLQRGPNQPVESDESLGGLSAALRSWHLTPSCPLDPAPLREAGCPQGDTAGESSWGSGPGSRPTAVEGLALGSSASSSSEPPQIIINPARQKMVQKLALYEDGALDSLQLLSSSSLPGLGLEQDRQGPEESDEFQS

[8] = target: Serine/threonine-protein kinase PLK1 (Homo sapiens, UniProt P53350); type: functional;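 also: PLK1 measured as one member of a kinome-wide profiling panel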
[9] = target: Casein kinase II subunit alpha (Homo sapiens, UniProt P68400); type: functional
Sequence of Casein kinase II subunit alpha (P68400 whole entry): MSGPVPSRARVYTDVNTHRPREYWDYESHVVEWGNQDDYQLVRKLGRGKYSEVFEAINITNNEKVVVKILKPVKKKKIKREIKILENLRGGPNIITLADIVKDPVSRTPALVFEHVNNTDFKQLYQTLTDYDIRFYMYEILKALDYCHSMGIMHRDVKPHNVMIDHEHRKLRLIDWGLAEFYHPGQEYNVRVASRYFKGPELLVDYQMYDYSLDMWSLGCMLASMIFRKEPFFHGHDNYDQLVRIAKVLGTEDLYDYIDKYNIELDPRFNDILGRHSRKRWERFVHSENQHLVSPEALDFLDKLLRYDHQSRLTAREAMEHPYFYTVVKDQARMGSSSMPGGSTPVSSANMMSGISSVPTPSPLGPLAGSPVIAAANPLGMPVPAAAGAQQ

[10] = target: MAP kinase-activated protein kinase 2 (Homo sapiens, UniProt P49137); type: functional;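 also: measured as one member of a kinome-wide kinase panel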
Sequence of MAP kinase-activated protein kinase 2 (P49137 whole entry): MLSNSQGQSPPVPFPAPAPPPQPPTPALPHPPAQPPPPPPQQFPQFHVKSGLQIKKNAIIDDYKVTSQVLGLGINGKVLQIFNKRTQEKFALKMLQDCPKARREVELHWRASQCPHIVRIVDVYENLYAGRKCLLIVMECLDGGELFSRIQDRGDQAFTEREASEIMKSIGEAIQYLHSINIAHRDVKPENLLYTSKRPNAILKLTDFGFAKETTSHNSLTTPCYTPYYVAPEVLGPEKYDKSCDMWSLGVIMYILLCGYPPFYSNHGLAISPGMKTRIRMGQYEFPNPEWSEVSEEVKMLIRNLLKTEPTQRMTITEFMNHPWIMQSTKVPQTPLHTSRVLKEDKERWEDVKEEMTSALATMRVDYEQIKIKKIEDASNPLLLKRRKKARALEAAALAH

[11] = target: STE20-like serine/threonine-protein kinase (Homo sapiens, UniProt Q9H2G2); type: functional
[12] = target: Testis-specific serine/threonine-protein kinase 1 (Homo sapiens, UniProt Q9BXA7); type: functional
Misshapen-like kinase 1 = Misshapen-like kinase 1 (Homo sapiens, UniProt Q8N4C8); type: functional;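 also: kinome panel screen with MINK as the panel member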
Sequence of Misshapen-like kinase 1 (Q8N4C8 whole entry): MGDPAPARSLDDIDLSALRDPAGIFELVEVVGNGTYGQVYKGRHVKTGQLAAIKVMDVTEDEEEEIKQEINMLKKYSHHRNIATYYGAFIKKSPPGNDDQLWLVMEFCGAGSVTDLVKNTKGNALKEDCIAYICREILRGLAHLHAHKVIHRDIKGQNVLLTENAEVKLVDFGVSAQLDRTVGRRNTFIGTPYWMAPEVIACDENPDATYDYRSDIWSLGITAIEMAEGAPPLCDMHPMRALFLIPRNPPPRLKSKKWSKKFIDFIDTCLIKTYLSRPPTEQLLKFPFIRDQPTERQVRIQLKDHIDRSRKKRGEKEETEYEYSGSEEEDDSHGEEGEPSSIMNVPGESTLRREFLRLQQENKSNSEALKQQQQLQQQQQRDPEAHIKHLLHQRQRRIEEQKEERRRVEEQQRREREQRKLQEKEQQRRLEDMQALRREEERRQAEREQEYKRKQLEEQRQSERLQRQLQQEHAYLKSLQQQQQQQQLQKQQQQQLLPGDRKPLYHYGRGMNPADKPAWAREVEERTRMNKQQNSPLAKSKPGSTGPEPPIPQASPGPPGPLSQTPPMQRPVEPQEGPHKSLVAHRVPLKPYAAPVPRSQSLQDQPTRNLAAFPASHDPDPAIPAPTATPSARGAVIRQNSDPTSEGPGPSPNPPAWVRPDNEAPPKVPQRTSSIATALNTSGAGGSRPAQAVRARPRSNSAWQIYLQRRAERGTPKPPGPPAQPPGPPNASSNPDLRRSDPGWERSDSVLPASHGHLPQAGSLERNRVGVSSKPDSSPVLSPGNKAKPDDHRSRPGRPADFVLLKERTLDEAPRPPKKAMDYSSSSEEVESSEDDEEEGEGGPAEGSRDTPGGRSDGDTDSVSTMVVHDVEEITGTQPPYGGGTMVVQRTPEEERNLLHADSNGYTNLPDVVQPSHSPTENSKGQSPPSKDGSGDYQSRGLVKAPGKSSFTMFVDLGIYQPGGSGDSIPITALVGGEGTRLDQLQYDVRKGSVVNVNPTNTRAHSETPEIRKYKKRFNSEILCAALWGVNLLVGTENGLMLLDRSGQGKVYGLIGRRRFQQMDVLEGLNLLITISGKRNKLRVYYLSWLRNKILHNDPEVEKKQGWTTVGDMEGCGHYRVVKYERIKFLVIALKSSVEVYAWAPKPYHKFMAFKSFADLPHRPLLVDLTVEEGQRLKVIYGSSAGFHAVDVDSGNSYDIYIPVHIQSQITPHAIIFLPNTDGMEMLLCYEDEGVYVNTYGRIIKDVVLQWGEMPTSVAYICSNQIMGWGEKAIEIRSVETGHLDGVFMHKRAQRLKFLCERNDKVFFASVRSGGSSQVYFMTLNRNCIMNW

[13] = target: Receptor tyrosine-protein kinase erbB-2 (Homo sapiens, UniProt P04626); assay: Navigating the Kinome. Panel member name: ERBB2; type: functional
[14] = target: Proto-oncogene tyrosine-protein kinase Src (Homo sapiens, UniProt P12931); type: functional;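 also: SRC entry within a kinome-wide kinase profiling panel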
[15] = target: RAC-alpha serine/threonine-protein kinase (Homo sapiens, UniProt P31749); type: functional;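 also: AKT1 affinity measured as one member of a kinome-wide kinase profiling panel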
Sequence of RAC-alpha serine/threonine-protein kinase (P31749 whole entry): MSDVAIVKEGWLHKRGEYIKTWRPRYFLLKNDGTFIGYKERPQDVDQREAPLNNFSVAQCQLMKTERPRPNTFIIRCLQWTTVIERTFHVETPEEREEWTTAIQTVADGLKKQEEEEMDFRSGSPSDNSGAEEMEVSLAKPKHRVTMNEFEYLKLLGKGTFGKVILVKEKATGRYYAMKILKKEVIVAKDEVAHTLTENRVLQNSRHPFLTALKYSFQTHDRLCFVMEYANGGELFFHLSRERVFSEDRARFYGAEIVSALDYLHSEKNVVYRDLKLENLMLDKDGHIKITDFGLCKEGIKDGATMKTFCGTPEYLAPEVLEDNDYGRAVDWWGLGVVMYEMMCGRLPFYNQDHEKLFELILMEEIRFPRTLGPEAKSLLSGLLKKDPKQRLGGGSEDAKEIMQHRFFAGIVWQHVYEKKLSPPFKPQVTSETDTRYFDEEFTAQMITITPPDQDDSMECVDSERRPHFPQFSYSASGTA

Caspase-8 = Caspase-8 (Homo sapiens, UniProt Q14790); assay: caspase-8 inhibition counter-screen, dose response, selectivity assay for caspase-6 inhibitor project, biochemical, Z-IETD-R110 fluorescence, cherry-picked samples (AID 743294)

CCN(CC)CCCC(C)n1c2nc(=O)[nH]c(=O)c-2nc2cc(Cl)ccc21 (configuration not stated)
AC50 (Caspase-3): 561 nM (active) | AC50 [1]: 1180 nM (active)

OC1CCC(Nc2nc(Cl)cc(-c3c[nH]c4ncccc34)n2)CC1 (configuration not stated)
Ki (SRSF protein kinase 1): 1000 nM (active) | pKi (SRSF protein kinase 1): 6 | Ki [2]: > 3.98 nM (inactive) | Ki [3]: 398 nM (active) | pKi [3]: 6.4 | Ki [4]: 39.8 nM (active) | pKi [4]: 7.4 | Ki [5]: 20 nM (active) | pKi [5]: 7.7 | Ki [6]: 1000 nM (active) | pKi [6]: 6 | Ki [7]: 79.4 nM (active) | pKi [7]: 7.1 | Ki [8]: 251 nM (active) | pKi [8]: 6.6 | Ki [9]: 158 nM (active) | pKi [9]: 6.8 | Ki [10]: 3980 nM (active) | pKi [10]: 5.4 | Ki [11]: 501 nM (active) | pKi [11]: 6.3 | Ki [12]: 126 nM (active) | pKi [12]: 6.9 | Ki (Misshapen-like kinase 1): 3.16 nM (active) | pKi (Misshapen-like kinase 1): 8.5 | Ki [13]: > 1580 nM (inactive) | Ki [14]: > 2000 nM (inactive) | Ki [15]: 2000 nM (active) | pKi [15]: 5.7

O=C(COC(=O)c1ccc([N+](=O)[O-])s1)Nc1ccc(F)cc1
AC50 (Caspase-8): 18600 nM (active)
